From patent US20100310685A1, “PUPICIDAL AND LARVICIDAL COMPOSITION” (priority 2008, published 2010)

Tested on: pupae of Nematocera Diptera (for example mosquitoes)
Experiment: specific research on pupicidal action
Details: in vivo

## CCCCCCCCCCCCCCCCO [cetyl alcohol, 1-hexadecanol]
  pupicidal action (kills pupae): excellent pupicide
